For one assay, the target named is P2X3 (Homo sapiens (Human), UniProt P56373). The assay can be described thus: Calcium uptake assay (P2X antagonist assay), P2X3. The class given is cell-based. Conditions: inhibition of agonist-induced calcium influx. The text has this: (§1) Human P2X3 (Accession no. NM_002559), P2X2 (Accession no. NM_170682) and Rat P2X3 (Accession no. NM_031075) and P2X2 (Accession no. NM_053656) are cloned into a mammalian expression vector (e.g., pcDNA5/TO or pcDNA3 Invitrogen). The human P2X2/3 chimera clone is created as described by Neelands et al, and then cloned into an expression vector as above. Receptors are expressed in cells (e.g., HEK293 or 1321N1 (obtained from the ECACC)) via transient transfection using standard lipid mediated transfection, or by creation of stable transfectants for each receptor. For expression of the P2X2/3 heteromeric receptor, the P2X3 expression vector is stably transfected into a cell line already stably expressing P2X2. P2X2/3 heteromer function is isolated using pharmacological methods. Cell lines are maintained in DMEM+5% Glutamax, the appropriate level of selective antibiotic, and 10% heat inactivated FBS.
(§2) Functional activity of compounds at the P2X receptor is determined by measuring their ability to inhibit agonist-induced calcium influx. Compounds are tested for antagonist activity against the P2X2/3 chimera, the P2X3 homomer, or the P2X2/3 heteromer. At the start of each screening day, the agonist EC50 is determined. Compound % inhibition or IC50s are subsequently determined using a pre-determined agonist concentration (EC50-90 depending on cell line) as a stimulus. The agonists used are αβMeATP, ATP, or other ATP analogs. Compounds may be tested at concentrations ranging from 1 μM to 10 μM.
(§3) To test for antagonist activity, cells expressing the appropriate receptor are seeded onto 96 or 384 well plates 18-24 hours prior to assay. On the day of the assay, cells are loaded with calcium-sensitive fluorescent dye (e.g., Fluo-4 no wash reagent-Invitrogen cat#F36206, or the BD™ PBX Calcium Assay Kit—BD cat#640175) in Hank's Buffered Salt Solution (HESS) with up to 10 mM supplemental CaCl2. Plates are incubated at 37° C. and then equilibrated at room temperature. Antagonism of agonist-induced calcium influx is measured using a fluorescent imaging plate reader (e.g. FLIPR^TETRA, Molecular Devices, Sunnyvale, Calif.). The assay comprises two stages: a pre-treatment phase followed by a treatment phase. Compounds may be tested as follows: For the pre-treatment phase, 50 μL of 3× concentration of test compound in HBSS is added to cells containing 100 μL of dye loading media to achieve a final concentration of 1× test compound. For the treatment phase, at a set interval after pre-treatment (1-30 minutes), 50 μL of 1× test compound plus […] solution is added, resulting in a final concentration of 1× compound and 1× agonist. Fluorescence is measured at 0.1-3 second intervals—with an excitation wavelength of 494 nm and an emission wavelength of 515 nm. Responses are measured as (peak fluorescence after agonist addition) minus (baseline fluorescence prior to treatment). Percent inhibition is calculated as follows: […]
(§4) IC50 values are determined by analyzing dose response data in a 4 parameter logistic fit using GraphPad Prizm.

Another assay concerns the target P2X2/3 (Homo sapiens (Human), UniProt P56373+Q9UBL9). The assay can be described thus: Calcium uptake assay (P2X antagonist assay), P2X2/3. The class given is cell-based. The note with it: inhibition of agonist-induced calcium influx.
Source text: as §1, §2, §3, §4

Where only a bound is given, the exact number is not on record here.

P2X3, sequence (P56373 whole entry): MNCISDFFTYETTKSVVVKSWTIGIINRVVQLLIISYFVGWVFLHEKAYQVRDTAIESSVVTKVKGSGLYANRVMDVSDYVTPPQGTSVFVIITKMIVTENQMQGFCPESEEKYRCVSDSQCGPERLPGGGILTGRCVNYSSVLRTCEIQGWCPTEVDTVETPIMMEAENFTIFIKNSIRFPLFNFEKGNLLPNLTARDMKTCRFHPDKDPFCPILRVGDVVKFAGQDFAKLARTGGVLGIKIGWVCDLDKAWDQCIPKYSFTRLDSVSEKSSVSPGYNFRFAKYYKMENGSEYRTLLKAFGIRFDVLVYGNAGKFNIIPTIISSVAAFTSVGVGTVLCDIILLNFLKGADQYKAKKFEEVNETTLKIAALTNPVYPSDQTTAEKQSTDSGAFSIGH
P2X2/3, sequence (Q9UBL9 whole entry): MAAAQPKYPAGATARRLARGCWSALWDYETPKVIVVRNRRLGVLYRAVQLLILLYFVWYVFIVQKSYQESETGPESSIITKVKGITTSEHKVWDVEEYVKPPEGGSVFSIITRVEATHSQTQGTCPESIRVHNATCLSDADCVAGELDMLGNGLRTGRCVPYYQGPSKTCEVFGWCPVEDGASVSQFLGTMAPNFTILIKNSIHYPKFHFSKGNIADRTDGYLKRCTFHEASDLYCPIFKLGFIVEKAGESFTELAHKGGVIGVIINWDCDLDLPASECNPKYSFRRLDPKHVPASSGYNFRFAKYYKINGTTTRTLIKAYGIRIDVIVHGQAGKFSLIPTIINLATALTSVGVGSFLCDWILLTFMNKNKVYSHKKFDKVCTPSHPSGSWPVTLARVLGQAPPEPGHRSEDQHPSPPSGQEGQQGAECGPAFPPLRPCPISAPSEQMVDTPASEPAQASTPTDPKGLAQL
P2X2/3, sequence (P56373 whole entry): as the sequence (P56373 whole entry) above

The term IC50 denotes the concentration at which inhibition is half-maximal. `Cc1ccc(N2CCc3ncnc(NC(C)c4cccc(F)c4)c3C2)nc1` (stereo not drawn) [Compound 2, [1-(3-Fluoro-phenyl)-ethyl]-[6-(5-methyl-pyridin-2-yl)-5,6,7,8-tetrahydro-pyrido[4,3-d]pyrimidin-4-yl]-amine]: the values for the IC50 on P2X3 and on P2X2/3 were 56 nM and 2430 nM, respectively.
Taken in the same sequence, the figures for `Cc1ccc(N2CCc3ncnc(NC(C)c4ccc(S(C)(=O)=O)cc4)c3C2)nc1` (stereo not drawn) [Compound 5, [1-(4-Methanesulfonyl-phenyl)-ethyl]-[6-(5-methyl-pyridin-2-yl)-5,6,7,8-tetrahydro-pyrido[4,3-d]pyrimidin-4-yl]-amine] were 128 nM and 4250 nM.
Taken in the same sequence, the figures for `Cc1ccc(N2CCc3ncnc(N[C@H](C)c4ccc(Cl)cc4)c3C2)nc1` [Compound 7, [(R)-1-(4-Chloro-phenyl)-ethyl]-[6-(5-methyl-pyridin-2-yl)-5,6,7,8-tetrahydro-pyrido[4,3-d]pyrimidin-4-yl]-amine] were 48 nM and 1910 nM.
As for `Cc1ccc(N2CCc3ncnc(N[C@H](C)c4ccccc4)c3C2)nc1` [Compound 8, [6-(5-Methyl-pyridin-2-yl)-5,6,7,8-tetrahydro-pyrido[4,3-d]pyrimidin-4-yl]-((R)-1-phenyl-ethyl)-amine], the results for the 50% inhibitory concentration (IC50) on P2X3 and at P2X2/3 were 73 nM and 2540 nM, respectively.
Taken in the same sequence, the figures for `Cc1ccc(N2CCc3ncnc(NC(C)c4ccccn4)c3C2)nc1` (stereo not drawn) [Compound 10, [6-(5-Methyl-pyridin-2-yl)-5,6,7,8-tetrahydro-pyrido[4,3-d]pyrimidin-4-yl]-(1-pyridin-2-yl-ethyl)-amine] were 123 nM and 3970 nM.
Taken in the same sequence, the figures for `Cc1ccc(N2CCc3ncnc(NC(C)c4cccnc4)c3C2)nc1` (stereo not drawn) [Compound 11, [6-(5-Methyl-pyridin-2-yl)-5,6,7,8-tetrahydro-pyrido[4,3-d]pyrimidin-4-yl]-(1-pyridin-3-yl-ethyl)-amine] were 63 nM and 2740 nM.
Turning to `Cc1ccc(N2CCc3ncnc(NC(C)c4ccccc4F)c3C2)nc1` (stereo not drawn) [Compound 12, [1-(2-Fluoro-phenyl)-ethyl]-[6-(5-methyl-pyridin-2-yl)-5,6,7,8-tetrahydro-pyrido[4,3-d]pyrimidin-4-yl]-amine], the figures for the IC50 on P2X3 and on P2X2/3 were 88 nM and 4620 nM, respectively.
Taken in the same sequence, the figures for `Cc1ccc(N2CCc3ncnc(NC(C)c4cc(F)cc(F)c4)c3C2)nc1` (stereo not drawn) [Compound 17, [1-(3,5-Difluoro-phenyl)-ethyl]-[6-(5-methyl-pyridin-2-yl)-5,6,7,8-tetrahydro-pyrido[4,3-d]pyrimidin-4-yl]-amine] were 52 nM and 803 nM.
Taken in the same sequence, the figures for `Cc1ccc(N2CCc3ncnc(NC(C)c4ccc(F)cc4F)c3C2)nc1` (stereo not drawn) [Compound 18, [1-(2,4-Difluoro-phenyl)-ethyl]-[6-(5-methyl-pyridin-2-yl)-5,6,7,8-tetrahydro-pyrido[4,3-d]pyrimidin-4-yl]-amine] were 50 nM and 3070 nM.
For `COc1ccc(C(C)Nc2ncnc3c2CN(c2ccc(C)cn2)CC3)cc1F` (stereo not drawn) [Compound 21, [1-(3-Fluoro-4-methoxy-phenyl)-ethyl]-[6-(5-methyl-pyridin-2-yl)-5,6,7,8-tetrahydro-pyrido[4,3-d]pyrimidin-4-yl]-amine], the figures for the half-maximal inhibitory concentration (IC50) at P2X3 and on P2X2/3 were 80 nM and 1060 nM, respectively.
Taken in the same sequence, the figures for `Cc1ccc(N2CCc3ncnc(NC(CCO)c4ccccc4)c3C2)nc1` (stereo not drawn) [Compound 32, 3-[6-(5-Methyl-pyridin-2-yl)-5,6,7,8-tetrahydro-pyrido[4,3-d]pyrimidin-4-ylamino]-3-phenyl-propan-1-ol] were 143 nM and 3880 nM.
Taken in the same sequence, the figures for `Cc1ccc([C@@H](C)Nc2ncnc3c2CN(c2ccc(C)cn2)CC3)cc1` [Compound 34] were 47 nM and 1460 nM.
`Cc1ccc(N2CCc3ncnc(NC(C)c4ccc(Cl)c(F)c4)c3C2)nc1` (stereo not drawn) [Compound 39, [1-(4-Chloro-3-fluoro-phenyl)-ethyl]-[6-(5-methyl-pyridin-2-yl)-5,6,7,8-tetrahydro-pyrido[4,3-d]pyrimidin-4-yl]-amine]: the IC50 on P2X3 was 43 nM; on P2X2/3, 1420 nM.
Regarding `COc1ccc([C@@H](C)Nc2ncnc3c2CN(c2ccc(C)cn2)CC3)cc1` [Compound 43, [(R)-1-(4-Methoxy-phenyl)-ethyl]-[6-(5-methyl-pyridin-2-yl)-5,6,7,8-tetrahydro-pyrido[4,3-d]pyrimidin-4-yl]-amine], the IC50 at P2X3 is 181 nM.
The same measure, in the same setting: to `CC[C@H](Nc1ncnc2c1CN(c1ccc(C)cn1)CC2)c1ccccc1` [Compound 45, [6-(5-Methyl-pyridin-2-yl)-5,6,7,8-tetrahydro-pyrido[4,3-d]pyrimidin-4-yl]-((S)-1-phenyl-propyl)-amine] belongs above 10000 nM.
As to `COc1cccc([C@@H](C)Nc2ncnc3c2CN(c2ccc(C)cn2)CC3)c1` [Compound 47, [(R)-1-(3-Methoxy-phenyl)-ethyl]-[6-(5-methyl-pyridin-2-yl)-5,6,7,8-tetrahydro-pyrido[4,3-d]pyrimidin-4-yl]-amine], the figures for the IC50 at P2X3 and at P2X2/3 were 21 nM and 705 nM, respectively.
`Cc1ccc(N2CCc3ncnc(N[C@H](C)c4ccc(F)cc4)c3C2)nc1` [Compound 49, [(R)-1-(4-Fluoro-phenyl)-ethyl]-[6-(5-methyl-pyridin-2-yl)-5,6,7,8-tetrahydro-pyrido[4,3-d]pyrimidin-4-yl]-amine]: the IC50 at P2X3 was 19 nM; on P2X2/3, 1220 nM.
Regarding `Cc1ccc(N2CCc3ncnc(N[C@H](C)c4ccc(C(F)(F)F)nc4)c3C2)nc1` [Compound 50, (R)-6-(5-Methylpyridin-2-yl)-N-(1-(6-(trifluoromethyl)pyridin-3-yl)ethyl)-5,6,7,8-tetrahydropyrido[4,3-d]pyrimidin-4-amine], the concentration for half-maximal inhibition (IC50) at P2X3 was found to be 15 nM; at P2X2/3 it was 279 nM.
For the compound `C[C@H](Nc1ncnc2c1CN(c1ccc(Cl)cn1)CC2)c1ccc(C(F)(F)F)nc1` [Compound 51, (S)-6-(5-Chloropyridin-2-yl)-N-(1-(6-(trifluoromethyl)pyridin-3-yl)ethyl)-5,6,7,8-tetrahydropyrido[4,3-d]pyrimidin-4-amine], the half-inhibitory concentration (IC50) at P2X3 is above 10000 nM.
On the same count and under the same terms, with `C[C@@H](Nc1ncnc2c1CN(c1ccc(Cl)cn1)CC2)c1ccc(C(F)(F)F)nc1` [Compound 52, [6-(5-Chloro-pyridin-2-yl)-5,6,7,8-tetrahydro-pyrido[4,3-d]pyrimidin-4-yl]-[(R)-1-(6-trifluoromethyl-pyridin-3-yl)-ethyl]-amine] the figure was 33 nM; with `FC(F)(F)c1ccc([C@H](Nc2ncnc3c2CN(c2ccc(Cl)cn2)CC3)C2CC2)cn1` [Compound 53, [6-(5-Chloro-pyridin-2-yl)-5,6,7,8-tetrahydro-pyrido[4,3-d]pyrimidin-4-yl]-[(R)-cyclopropyl-(6-trifluoromethyl-pyridin-3-yl)-methyl]-amine], 3560 nM.
As to `FC(F)(F)c1ccc([C@@H](Nc2ncnc3c2CN(c2ccc(Cl)cn2)CC3)C2CC2)cn1` [Compound 54, [6-(5-Chloro-pyridin-2-yl)-5,6,7,8-tetrahydro-pyrido[4,3-d]pyrimidin-4-yl]-[(S)-cyclopropyl-(6-trifluoromethyl-pyridin-3-yl)-methyl]-amine], on P2X2/3, the IC50 was above 10000 nM.
`Cc1ccc(N2CCc3ncnc(N[C@H](CO)c4ccc(C(F)(F)F)cc4)c3C2)nc1` [Compound 55, (S)-2-(6-(5-Methylpyridin-2-yl)-5,6,7,8-tetrahydropyrido[4,3-d]pyrimidin-4-ylamino)-2-(4-(trifluoromethyl)phenyl)ethanol]: the 50% inhibitory concentration (IC50) on P2X3 was determined as 158 nM; on P2X2/3, 3970 nM.
For the compound `Cc1ccc(N2CCc3ncnc(NC(CCO)c4ccc(C(F)(F)F)nc4)c3C2)nc1` (stereo not drawn) [Compound 56, 3-[6-(5-Methyl-pyridin-2-yl)-5,6,7,8-tetrahydro-pyrido[4,3-d]pyrimidin-4-ylamino]-3-(6-trifluoromethyl-pyridin-3-yl)-propan-1-ol], the figures for the IC50 at P2X3 and at P2X2/3 were 67 nM and 522 nM, respectively.
